{"source": "patent US7141170B2", "about": "“Halogenated solvent remediation” (North Wind, Inc., priority 2004, dated 2006)", "key": {"[1]": {"system": "TCE-dechlorinating culture derived from TAN-25 groundwater", "assay": "Microcosm dechlorination and electron donor utilization study", "assay_type": "cell-based", "experimental": "Dechlorination studies were carried out to determine if whey powder solutions facilitate complete degradation of target contaminants at reasonable rates. Microcosms were constructed in triplicate sets. These microcosms were amended periodically with whey powder and TCE and analyzed monthly for TCE, its reductive degradation products, electron donor (as both COD and volatile fatty acids (VFAs)), redox, and pH.\nAn existing laboratory, sodium lactate-fed culture, derived from TAN-25 groundwater undergoing complete anaerobic reductive dechlorination (ARD) of TCE to ethene, was used to inoculate the cultures. Fresh TAN groundwater from the source area was also used to ensure that microbial populations that have been lost as a result of laboratory conditions were present for the evaluation. Serum vials (160 mL) were used as microcosms to grow the cultures. Prior to inoculation, the microcosms, along with all other culture-contact supplies, were autoclaved at 121° C. for 20 minutes and cooled to room temperature. Inoculation of the microcosms was done in a glove box containing nitrogen (95%), carbon dioxide (2.5%), and hydrogen (2.5%). Each microcosm was loaded with the inoculum, which comprised cells from the TCE-dechlorinating culture (1 L), cells from TAN-25 groundwater (1 L), and TAN-37 groundwater (2.5 L) as the media.\nThe culture cells were used to ensure a robust dechlorinating community was present, and cells were collected from TAN-25 groundwater to ensure the laboratory community was representative of the community at TAN. […] The cell pellets from the dechlorinating culture and TAN-25 groundwater were separated from the supernatant because both contained electron donors, including propionate, acetate, and lactate. TAN-37 groundwater was selected as the medium because it was anaerobic groundwater that contained little or no carbon (40 mg/L as COD with <2.5 ppm acetate and propionate) that might interfere with the evaluation of electron donor utilization. The inoculum mixture was then spiked with TCE (10 ppm), aliquoted (100 mL) into the microcosms, and each respective electron donor was added (˜200 ppm for all electron donors except whey powder [˜400 ppm]). The microcosms were then sealed with butyl-rubber septa and crimped. The headspace of each microcosm was flushed for 10 minutes with 100% nitrogen, and then an initial positive pressure of 5 psig was induced into each one. […] The test microcosms were prepared in triplicate and negative control microcosms were amended with whey powder and LactOil™/propionate. The study included a total of 20 microcosms.\nThree months after inoculation, additional electron donor was added to all of the microcosms (200 to 300 mg/L as COD). […] At this point, approximately 50 mL of TAN-37 groundwater was also amended to all of the biotic microcosms to replace the volume lost because of sampling. This was done by placing all of the biotic microcosms into the anaerobic chamber containing nitrogen (95%), carbon dioxide (2.5%), and hydrogen (2.5%); removing the septum; adding TAN-37 groundwater and electron donor; and replacing septum and spiking each microcosm with a TCE stock solution. TCE was amended to all of the microcosms 4 and 6 months after inoculation.\nThroughout these studies, the microcosms were monitored monthly for TCE, cis-DCE, trans-DCE, VC, ethene, ethane, methane, lactate, acetate, propionate, butyrate, pH, and Eh. […] Analytical samples (6 mL) were removed using a glass syringe (Hamilton Co., Reno, Nev.) and a 22-gauge sterile needle."}, "[2]": {"assay": "Interfacial tension between electron donor solutions and nonaqueous phase TCE (pendant drop)", "assay_type": "physicochemical", "conditions": "0% ethyl lactate", "source_text": "Based on the field results presented in Example 1, laboratory studies were preformed to confirm that the enhanced bioavailability of TCE observed in the field was due to co-solvent or surfactant behavior resulting from the use of high concentrations of sodium lactate. Two fundamental properties used to screen the co-solvent or surfactant properties of a solution are surface tension and interfacial tension. Surface tension measures the force per unit length along the interface between a liquid and air due to its tension. When a co-solvent or surfactant is present in an aqueous liquid at increasing concentrations, the surface tension of that liquid decreases. Interfacial tension is similar to surface tension except that it measures the force per unit length along the interface between two liquid phases arising from the surface free energy. The higher the interfacial tension between two liquids, the less likely one is to dissolve into the other, and the more difficult it is for one to be transported within the other. […]\nThe laboratory study performed to confirm the co-solvent properties of the high concentration electron donor solution measured the surface tension of electron donor solutions at various concentrations. Next, interfacial tensions between the same electron donor solutions and nonaqueous phase TCE were measured. […]"}, "[3]": {"assay": "Surface tension of electron donor solutions (pendant drop)", "assay_type": "physicochemical", "conditions": "for change in surface tension: 0% ethyl lactate", "source_text": "Two fundamental properties used to screen the co-solvent or surfactant properties of a solution are surface tension and interfacial tension. Surface tension measures the force per unit length along the interface between a liquid and air due to its tension. When a co-solvent or surfactant is present in an aqueous liquid at increasing concentrations, the surface tension of that liquid decreases. Interfacial tension is similar to surface tension except that it measures the force per unit length along the interface between two liquid phases arising from the surface free energy. The higher the interfacial tension between two liquids, the less likely one is to dissolve into the other, and the more difficult it is for one to be transported within the other. Thus, perhaps the most significant property of co-solvents and surfactants in the context of chlorinated solvent remediation is that they decrease the interfacial tension between the aqueous phase (groundwater) and the organic nonaqueous phase so that the solubility (or mobility for order-of-magnitude decreases) of the nonaqueous phase is enhanced. The laboratory study performed to confirm the co-solvent properties of the high concentration electron donor solution measured the surface tension of electron donor solutions at various concentrations. Next, interfacial tensions between the same electron donor solutions and nonaqueous phase TCE were measured. Two types of electron donor solutions were used. […] Surface and interfacial tension measurements were made using the pendant drop method (M. J. Rosen, ed., Structure/Performance Relationships in Surfactants, American Chemical Society, Washington […]. Arundel, The Profile Area of Pendant Drops, 82 J. Phys. Chem. 898 (1978)) coupled with real-time video imaging (M. D. Herd et al., Interfacial Tensions of Microbial Surfactants Determined by Real-Time Video Imaging of Pendant Drops, Proceedings paper number SPE/DOE 24206 513-519, SPE/DOE Eighth Symposium on Enhanced Oil Recovery, Tulsa, Okla. (1992))."}, "[4]": {"assay": "Field evaluation of enhanced in situ bioremediation at Test Area North (sodium lactate injection)", "procedure": "A 1-year field evaluation of enhanced in situ bioremediation was performed at Test Area North (“TAN”) of the Idaho National Engineering and Environmental Laboratory. […] The locations of a 5,000 μg/L TCE isopleth (14); 1,000 μg/L TCE isopleth (16); 100 μg/L TCE isopleth (18); and 5 μg/L TCE isopleth (20) are shown by solid lines. FIG. 2 illustrates a cross section of this site, showing the surface of the ground (22), an approximately 63-m (210-feet) fractured basalt unsaturation zone (24) (not drawn to scale), an approximately 60-m (200-feet) fractured basalt aquifer (26), and an impermeable clay interbed (28). […]\nThe initial electron donor addition strategy involved continuous injection of potable water at 37.85 liters/minute (10 gpm) into Well TSF-05. […] It was determined that the continuous injection of clean water at 37.85 liters/minute (10 gpm) overwhelmed the flux of contaminants from the secondary source. […] This was intended to prevent significant quantities of electron donor from collecting in the injection well and to help prevent biofouling. […]\nEleven monitoring wells (i.e., TAN-D2, TAN-9, TAN-10A, TAN-25, TAN-26, TAN-27, TAN-28, TAN-29, TAN-30A, TAN-31, and TAN-37) were sampled biweekly and analyzed for electron donors, biological activity indicators, competing inorganic electron acceptors and their reduced products, chloroethenes, ethene, pH, temperature, and specific conductivity."}}, "data": [{"smiles": "CC(O)C(=O)[O-].[Na+]", "note": "(stereo not shown) [sodium lactate]", "values": [{"measurement": "accumulated cis-DCE, average concentration", "setting": "[1]; 1 month after inoculation", "value": 75, "unit": "ppb"}, {"measurement": "methane accumulated, average", "setting": "[1]; between 6 and 7 months", "value": 21, "unit": "µM"}, {"measurement": "methane concentration generated", "setting": "[1]; in 3 months", "value": "approximately 50 μM"}, {"measurement": "TCE remaining", "setting": "[1]; one month after TCE re-addition, only ethene present", "value": "all of the TCE was gone"}, {"measurement": "TCE remaining", "setting": "[1]; three months after inoculation, only ethene detected", "value": "all of the TCE was gone"}, {"measurement": "ethene production as share of amended TCE", "setting": "[1]; two months after inoculation", "value": 10, "unit": "%"}, {"measurement": "interfacial tension as % of the value at a sodium lactate concentration of 0.1%", "setting": "[2]; sodium lactate 30%", "value": 47, "unit": "%"}, {"measurement": "decrease of interfacial tension", "setting": "[2]; sodium lactate increased from 0.1 to 3%", "value": "about 26%"}, {"measurement": "change in surface tension", "setting": "[3]; sodium lactate concentration increased to 30 and 60%", "value": "dramatic decrease"}, {"measurement": "change in surface tension", "setting": "[3]; sodium lactate concentrations from 0.01 to 7%", "value": "almost no change"}, {"measurement": "reductive dechlorination of TCE to ethene", "setting": "[4]; all wells receiving significant lactate concentrations", "value": "Enhanced reductive dechlorination of TCE to ethene was observed"}, {"measurement": "TCE concentrations deep in the aquifer soon after addition began", "setting": "[4]; well TAN-26", "value": "dramatic increase"}]}, {"smiles": "CCOC(=O)C(C)O", "note": "(stereo not shown) [ethyl lactate]", "values": [{"measurement": "effect on the solution's surface tension", "setting": "[3]; addition of 1% and 10% ethyl lactate to the different sodium lactate solutions", "value": "pronounced effect"}]}]}
